Results from ChEMBL document CHEMBL4033745, “3D-QSAR (CoMFA, CoMSIA), molecular docking and molecular dynamics simulations study of 6-aryl-5-cyano-pyrimidine derivatives to explore the structure requirements of LSD1 inhibitors” (Bioorg Med Chem Lett, 2017).

Target: Lysine-specific histone demethylase 1A (Homo sapiens, UniProt O60341)
Experiment: Inhibition of LSD1 (unknown origin)

Structure (SMILES) | IC50 (read-out: IC50) [µM] | IC50 (read-out: pIC50 (converted)) [µM]
N#Cc1c(Cl)nc(SCc2cn(Cc3ccccc3Cl)nn2)nc1-c1ccc(Cl)cc1 | 125 | 
C#CCSc1nc(Cl)c(C#N)c(-c2ccc([N+](=O)[O-])cc2)n1 | 125 | 

Next, values leading:

IC50 (read-out: IC50) [µM] | IC50 (read-out: pIC50 (converted)) [µM] | Structure (SMILES)
125 |  | COc1cc(-c2nc(SCc3ccc(F)cc3)nc(NNC(N)=S)c2C#N)cc(OC)c1OC
125 |  | C#CCSc1nc(Nc2ccc(F)cc2)c(C#N)c(-c2ccccc2)n1
125 |  | C#CCSc1nc(Nc2ccc(Cl)cc2)c(C#N)c(-c2ccccc2)n1
125 | 123 | C#CCSc1nc(Nc2ccc([N+](=O)[O-])cc2)c(C#N)c(-c2ccccc2)n1
